Source: PubChem BioAssay AID248 (DTP/NCI, 2004)
Toxic doses and inconclusive results are not listed. Rule as the data show it: active = T/C of 150% or more; inactive = T/C below 125%.

Test system: L1210 leukemia ip in BDF1 mice, survival T/C
Assay: NCI In Vivo Anticancer Drug Screen. Data for tumor model L1210 Leukemia (intraperitoneal) in B6D2F1 (BDF1) mice
Settings: endpoint: mean survival time, higher = longer survival
Procedure, shortened: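 Transplantable tumor model; survival measured in treated vs vehicle control mice. Value = treated/control.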

[1] = dose: 150.0 mg/kg/injection, schedule: Q04DX003 (ip), vehicle: saline
[2] = dose: 100.0 mg/kg/injection, schedule: Q01DX009 (ip), vehicle: saline with Tween-80
[3] = dose: 200.0 mg/kg/injection, schedule: Q01DX009 (ip), vehicle: saline with Tween-80
[4] = dose: 400.0 mg/kg/injection, schedule: Q01DX009 (ip), vehicle: saline with Tween-80
[5] = dose: 100.0 mg/kg/injection, schedule: Q04DX003 (ip), vehicle: saline with Tween-80
[6] = dose: 200.0 mg/kg/injection, schedule: Q04DX003 (ip), vehicle: saline with Tween-80
[7] = dose: 400.0 mg/kg/injection, schedule: Q04DX003 (ip), vehicle: saline with Tween-80
[8] = dose: 100.0 mg/kg/injection, schedule: Q04DX002 (ip), vehicle: Klucel (hydroxypropylcellulose) (HPC)
[9] = dose: 200.0 mg/kg/injection, schedule: Q04DX002 (ip), vehicle: Klucel (hydroxypropylcellulose) (HPC)
[10] = dose: 400.0 mg/kg/injection, schedule: Q04DX002 (ip), vehicle: Klucel (hydroxypropylcellulose) (HPC)
[11] = dose: 100.0 mg/kg/injection, schedule: Q01DX009 (ip), vehicle: saline
[12] = dose: 100.0 mg/kg/injection, schedule: Q04DX003 (ip), vehicle: Klucel (hydroxypropylcellulose) (HPC)
[13] = dose: 200.0 mg/kg/injection, schedule: Q04DX003 (ip), vehicle: Klucel (hydroxypropylcellulose) (HPC)
[14] = dose: 400.0 mg/kg/injection, schedule: Q04DX003 (ip), vehicle: Klucel (hydroxypropylcellulose) (HPC)
[15] = dose: 100.0 mg/kg/injection, schedule: Q01DX001 (ip), vehicle: carboxymethylcellulose (CMC)
[16] = dose: 200.0 mg/kg/injection, schedule: Q01DX001 (ip), vehicle: carboxymethylcellulose (CMC)
[17] = dose: 400.0 mg/kg/injection, schedule: Q01DX001 (ip), vehicle: carboxymethylcellulose (CMC)

Measured: T/C

O=c1ccc2c(Cl)cc(CN(CCO)CCO)cc2[nH]1
inactive: dose: 75.0 mg/kg/injection, schedule: Q01DX001 (ip), vehicle: saline 102 % of control | dose: 75.0 mg/kg/injection, schedule: Q04DX003 (ip), vehicle: saline 97 % of control | dose: 150.0 mg/kg/injection, schedule: Q01DX001 (ip), vehicle: saline 102 % of control | [1] 92 % of control | dose: 300.0 mg/kg/injection, schedule: Q01DX001 (ip), vehicle: saline 108 % of control

COc1ccc(C(=O)C(=O)c2ccccc2Cl)cc1
inactive: dose: 100.0 mg/kg/injection, schedule: Q01DX005 (ip), vehicle: saline with Tween-80 104 % of control | [2] 96 % of control | dose: 200.0 mg/kg/injection, schedule: Q01DX005 (ip), vehicle: saline with Tween-80 101 % of control | [3] 107 % of control | dose: 400.0 mg/kg/injection, schedule: Q01DX005 (ip), vehicle: saline with Tween-80 101 % of control | [4] 100 % of control

CCOc1ccc(N=O)c(O)c1
inactive: dose: 75.0 mg/kg/injection, schedule: Q01DX001 (ip), vehicle: carboxymethylcellulose (CMC) 101 % of control | dose: 150.0 mg/kg/injection, schedule: Q01DX001 (ip), vehicle: carboxymethylcellulose (CMC) 90 % of control

Nc1nc2c(nnn2C2CC(CO)C(O)C2O)c(=O)[nH]1 (stereo not given)
inactive: dose: 100.0 mg/kg/injection, schedule: Q01DX001 (ip), vehicle: other 104 % of control | dose: 200.0 mg/kg/injection, schedule: Q01DX001 (ip), vehicle: other 105 % of control | dose: 400.0 mg/kg/injection, schedule: Q01DX001 (ip), vehicle: other 109 % of control

COC(=O)c1ccc(C(=O)NCCCc2c(C)nc(N)[nH]c2=O)cc1
inactive: dose: 100.0 mg/kg/injection, schedule: Q01DX001 (ip), vehicle: Klucel (hydroxypropylcellulose) (HPC) 97 % of control | dose: 200.0 mg/kg/injection, schedule: Q01DX001 (ip), vehicle: Klucel (hydroxypropylcellulose) (HPC) 92 % of control | dose: 400.0 mg/kg/injection, schedule: Q01DX001 (ip), vehicle: Klucel (hydroxypropylcellulose) (HPC) 92 % of control

O=C(O)c1c(F)ccc([N+](=O)[O-])c1F
inactive: dose: 100.0 mg/kg/injection, schedule: Q04DX002 (ip), vehicle: saline 108 % of control | dose: 200.0 mg/kg/injection, schedule: Q04DX002 (ip), vehicle: saline 103 % of control

CC(C)(C1c2ccccc2C(=NO)c2ccccc21)[N+](=O)[O-] (stereo not given)
inactive: [2] 98 % of control | [5] 95 % of control | [3] 94 % of control | [6] 95 % of control | [4] 94 % of control | [7] 98 % of control

O=C(NC(=S)NCc1ccncc1)c1ccccc1
inactive: [8] 100 % of control | [9] 95 % of control | [10] 92 % of control

O=[N+]([O-])c1cc(C=Nc2ccccc2)ccc1Cl
inactive: [11] 97 % of control | [12] 94 % of control | dose: 200.0 mg/kg/injection, schedule: Q01DX009 (ip), vehicle: saline 108 % of control | [13] 100 % of control | dose: 400.0 mg/kg/injection, schedule: Q01DX009 (ip), vehicle: saline 103 % of control | [14] 97 % of control

CCC(C)C(CN)(CCN(C)C)Cc1cccc2ccccc12 (stereo not given)
inactive: dose: 12.5 mg/kg/injection, schedule: Q04DX003 (ip), vehicle: saline 93 % of control | dose: 25.0 mg/kg/injection, schedule: Q04DX003 (ip), vehicle: saline 96 % of control | dose: 50.0 mg/kg/injection, schedule: Q04DX003 (ip), vehicle: saline 101 % of control

NC(=O)c1ccc[n+](CCO)c1
inactive: dose: 3.1 mg/kg/injection, schedule: Q01DX009 (ip), vehicle: saline 102 % of control | dose: 6.25 mg/kg/injection, schedule: Q01DX009 (ip), vehicle: saline 104 % of control | dose: 12.5 mg/kg/injection, schedule: Q01DX009 (ip), vehicle: saline 98 % of control | dose: 25.0 mg/kg/injection, schedule: Q01DX009 (ip), vehicle: saline 104 % of control | dose: 50.0 mg/kg/injection, schedule: Q01DX009 (ip), vehicle: saline 110 % of control | [11] 100 % of control | dose: 115.0 mg/kg/injection, schedule: Q01DX Z (ip), vehicle: saline 100 % of control | [1] 100 % of control | dose: 175.0 mg/kg/injection, schedule: Q01DX Z (ip), vehicle: saline 94 % of control | dose: 225.0 mg/kg/injection, schedule: Q04DX003 (ip), vehicle: saline 104 % of control | dose: 265.0 mg/kg/injection, schedule: Q01DX Z (ip), vehicle: saline 105 % of control | dose: 335.0 mg/kg/injection, schedule: Q04DX003 (ip), vehicle: saline 100 % of control | dose: 400.0 mg/kg/injection, schedule: Q01DX Z (ip), vehicle: saline 100 % of control

Nc1ccc2c(c1)C(=NO)c1cc(N)ccc1-2
inactive: [15] 106 % of control | [16] 108 % of control

CC(C)(C)NC(=O)/C=C\C(=O)O
inactive: dose: 100.0 mg/kg/injection, schedule: Q01DX009 (ip), vehicle: gum acacia 98 % of control | [12] 103 % of control | dose: 200.0 mg/kg/injection, schedule: Q01DX009 (ip), vehicle: gum acacia 95 % of control | [13] 105 % of control | dose: 400.0 mg/kg/injection, schedule: Q01DX009 (ip), vehicle: gum acacia 90 % of control | [14] 92 % of control

O=c1oc(-c2ccccc2)c(-c2ccccc2)o1
inactive: dose: 100.0 mg/kg/injection, schedule: Q04DX002 (ip), vehicle: other 100 % of control | dose: 200.0 mg/kg/injection, schedule: Q04DX002 (ip), vehicle: other 103 % of control | dose: 400.0 mg/kg/injection, schedule: Q04DX002 (ip), vehicle: other 96 % of control

COc1cccc(NC(=S)NC2CC(C)CC(C)(C)C2)c1 (stereo not given)
inactive: dose: 100.0 mg/kg/injection, schedule: Q04DX002 (ip), vehicle: gum acacia 95 % of control | dose: 200.0 mg/kg/injection, schedule: Q04DX002 (ip), vehicle: gum acacia 98 % of control | dose: 400.0 mg/kg/injection, schedule: Q04DX002 (ip), vehicle: gum acacia 95 % of control

OC(/N=C/c1ccccc1)C(Cl)(Cl)Cl (stereo not given)
inactive: [8] 103 % of control | [9] 88 % of control | [10] 114 % of control

O=C1c2ccccc2CCCC1Br (stereo not given)
inactive: [15] 95 % of control | [16] 87 % of control | [17] 92 % of control

NC(=O)C1=C(N)CCC1
inactive: [5] 100 % of control | [6] 95 % of control | [7] 97 % of control

Oc1ccc(Br)cc1/C=N\NC(=S)Nc1ccc2cn[nH]c2c1
inactive: dose: 25.0 mg/kg/injection, schedule: Q01DX001 (ip), vehicle: carboxymethylcellulose (CMC) 90 % of control | dose: 50.0 mg/kg/injection, schedule: Q01DX001 (ip), vehicle: carboxymethylcellulose (CMC) 101 % of control | [15] 93 % of control | [16] 86 % of control | [17] 107 % of control
